Test results: USRE44733E1, “6-mercapto-cyclodextrin derivatives:reversal agents for drug-induced neuromuscular block” (Merck Sharp & Dohme B.V., priority 1999, dated 2014)

Tested on: neuromuscular block, induced by the muscle relaxant rocuronium bromide (Roc)
Test: Reversal of neuromuscular blockade in anaesthetized guinea pigs in vivo
Details: for concentration at maximum reversal (at conc.) / % max reversal: anaesthetized guinea pigs, rocuronium bromide steady-state block; for concentration at maximum reversal (at conc.): dose of reversal agent at which % max reversal was seen; for % max reversal: maximum reversal; for ED50: dose producing 50% reversal of steady-state neuromuscular block: anaesthetized male Dunkin-Hartley guinea pigs, steady-state block of 85-90% by continuous rocuronium bromide infusion, reversal agent given by jugular vein catheter, M. gastrocnemius contractions
Experimental: Reversal of Neuromuscular Blockade in Anaesthetized Guinea Pigs in vivo
Male Dunkin-Hartley guinea pigs (bodyweight: 600-900 g) were anaesthetized by i.p. administration of 10 mg/kg pentobarbitone and 1000 mg/kg urethane. After tracheotomy, the animals were artificially ventilated using a Harvard small animal ventilator. A catheter was placed into the carotid artery for continuous monitoring of arterial blood pressure and the taking of blood samples for blood gas analysis. Heart rate was derived from the blood pressure signal. The sciatic nerve was stimulated (rectangular pulses of 0.5 ms duration at 10 s (0.1 Hz) intervals at a supramaximal voltage, using a Grass S88 Stimulator) and the force of M. gastrocnemius contractions was measured using a Grass FT03 force-displacement transducer. Contractions, blood pressure and heart rate were recorded on a multichannel Grass 7D recorder. Catheters were placed in both jugular veins. One catheter was used for the continuous infusion of a neuromuscular blocking agent. The infusion rate of the neuromuscular blocking agent was increased until a steady-state block of 85-90% was obtained. The other catheter was used for administration of increasing doses of the reversal agent. During continuous infusion of the neuromuscular blocking agent, single doses of increasing concentration of reversal agent were given. At the end of the experiment, the measured force of muscle contractions was plotted against the concentration of reversal agent, and using regression analysis techniques, the 50% reversal concentration was calculated. Results for the reversal of the neuromuscular block, induced by the muscle relaxant rocuronium bromide (Roc), by the 6-mercapto-cyclodextrin derivatives of Examples 1-19 are presented in Table I. For comparison, the reversal activity of the parent compounds β-cyclodextrin and γ-cyclodextrin are included as well.

## O=C([O-])c1ccc(SC[C@H]2O[C@@H]3O[C@H]4[C@H](O)[C@@H](O)[C@@H](O[C@H]5[C@H](O)[C@@H](O)[C@@H](O[C@H]6[C@H](O)[C@@H](O)[C@@H](O[C@H]7[C@H](O)[C@@H](O)[C@@H](O[C@H]8[C@H](O)[C@@H](O)[C@@H](O[C@H]9[C@H](O)[C@@H](O)[C@@H](O[C@H]%10[C@H](O)[C@@H](O)[C@@H](O[C@H]2[C@H](O)[C@H]3O)O[C@@H]%10CSc2ccc(C(=O)[O-])cc2)O[C@@H]9CSc2ccc(C(=O)[O-])cc2)O[C@@H]8CSc2ccc(C(=O)[O-])cc2)O[C@@H]7CSc2ccc(C(=O)[O-])cc2)O[C@@H]6CSc2ccc(C(=O)[O-])cc2)O[C@@H]5CSc2ccc(C(=O)[O-])cc2)O[C@@H]4CSc2ccc(C(=O)[O-])cc2)cc1.[Na+].[Na+].[Na+].[Na+].[Na+].[Na+].[Na+].[Na+] [example 8, 6-Per-deoxy-6-per-(4-carboxyphenyl)thio-γ-cyclodextrin, Sodium Salt]
  concentration at maximum reversal (at conc.): (0.48) μmol · kg^−1
  % max reversal: 95%
  ED50: dose producing 50% reversal of steady-state neuromuscular block: 0.10 µmol/kg

## O=C([O-])Cc1ccc(SC[C@H]2O[C@@H]3O[C@H]4[C@H](O)[C@@H](O)[C@@H](O[C@H]5[C@H](O)[C@@H](O)[C@@H](O[C@H]6[C@H](O)[C@@H](O)[C@@H](O[C@H]7[C@H](O)[C@@H](O)[C@@H](O[C@H]8[C@H](O)[C@@H](O)[C@@H](O[C@H]9[C@H](O)[C@@H](O)[C@@H](O[C@H]%10[C@H](O)[C@@H](O)[C@@H](O[C@H]2[C@H](O)[C@H]3O)O[C@@H]%10CSc2ccc(CC(=O)[O-])cc2)O[C@@H]9CSc2ccc(CC(=O)[O-])cc2)O[C@@H]8CSc2ccc(CC(=O)[O-])cc2)O[C@@H]7CSc2ccc(CC(=O)[O-])cc2)O[C@@H]6CSc2ccc(CC(=O)[O-])cc2)O[C@@H]5CSc2ccc(CC(=O)[O-])cc2)O[C@@H]4CSc2ccc(CC(=O)[O-])cc2)cc1.[Na+].[Na+].[Na+].[Na+].[Na+].[Na+].[Na+].[Na+] [example 9, 6-Per-deoxy-6-per-(4-carboxymethylphenyl)thio-γ-cyclodextrin, Sodium Salt]
  concentration at maximum reversal (at conc.): (0.50) μmol · kg^−1
  % max reversal: 100%
  ED50: dose producing 50% reversal of steady-state neuromuscular block: 0.13 µmol/kg

## NC(=O)CCCSCC1OC2OC3C(CSCCCC(N)=O)OC(OC4C(CSCCCC(N)=O)OC(OC5C(CSCCCC(N)=O)OC(OC6C(CSCCCC(N)=O)OC(OC7C(CSCCCC(N)=O)OC(OC8C(CSCCCC(N)=O)OC(OC9C(CSCCCC(N)=O)OC(OC1C(O)C2O)C(O)C9O)C(O)C8O)C(O)C7O)C(O)C6O)C(O)C5O)C(O)C4O)C(O)C3O (stereo not drawn) [example 10, 6-Per-deoxy-6-per(3-amidopropyl)thio-γ-cyclodextrin]
  concentration at maximum reversal (at conc.): (33) μmol · kg^−1
  % max reversal: 94%
  ED50: dose producing 50% reversal of steady-state neuromuscular block: 0.57 µmol/kg

## OCCOCCSCC1OC2OC3C(CSCCOCCO)OC(OC4C(CSCCOCCO)OC(OC5C(CSCCOCCO)OC(OC6C(CSCCOCCO)OC(OC7C(CSCCOCCO)OC(OC8C(CSCCOCCO)OC(OC9C(CSCCOCCO)OC(OC1C(O)C2O)C(O)C9O)C(O)C8O)C(O)C7O)C(O)C6O)C(O)C5O)C(O)C4O)C(O)C3O (stereo not drawn) [example 11, 6-Per-deoxy-6-per(5-hydroxy-3-oxa-pentyl)thio-γ-cyclodextrin]
  concentration at maximum reversal (at conc.): (2.1) μmol · kg^−1
  % max reversal: 92%
  ED50: dose producing 50% reversal of steady-state neuromuscular block: 0.47 µmol/kg

## O=C([O-])c1ccccc1C(=O)NCCSC[C@H]1O[C@@H]2O[C@H]3[C@H](O)[C@@H](O)[C@@H](O[C@H]4[C@H](O)[C@@H](O)[C@@H](O[C@H]5[C@H](O)[C@@H](O)[C@@H](O[C@H]6[C@H](O)[C@@H](O)[C@@H](O[C@H]7[C@H](O)[C@@H](O)[C@@H](O[C@H]8[C@H](O)[C@@H](O)[C@@H](O[C@H]9[C@H](O)[C@@H](O)[C@@H](O[C@H]1[C@H](O)[C@H]2O)O[C@@H]9CSCCNC(=O)c1ccccc1C(=O)[O-])O[C@@H]8CSCCNC(=O)c1ccccc1C(=O)[O-])O[C@@H]7CSCCNC(=O)c1ccccc1C(=O)[O-])O[C@@H]6CSCCNC(=O)c1ccccc1C(=O)[O-])O[C@@H]5CSCCNC(=O)c1ccccc1C(=O)[O-])O[C@@H]4CSCCNC(=O)c1ccccc1C(=O)[O-])O[C@@H]3CSCCNC(=O)c1ccccc1C(=O)[O-].[Na+].[Na+].[Na+].[Na+].[Na+].[Na+].[Na+].[Na+] [example 12, 6-Per-deoxy-6-per[(2(2-carboxybenzoyl)amino)ethyl]thio-γ-cyclodextrin, Sodium Salt]
  concentration at maximum reversal (at conc.): (0.48) μmol · kg^−1
  % max reversal: 95%
  ED50: dose producing 50% reversal of steady-state neuromuscular block: 0.085 µmol/kg

## OCCSC[C@H]1O[C@@H]2O[C@H]3[C@H](O)[C@@H](O)[C@@H](O[C@H]4[C@H](O)[C@@H](O)[C@@H](O[C@H]5[C@H](O)[C@@H](O)[C@@H](O[C@H]6[C@H](O)[C@@H](O)[C@@H](O[C@H]7[C@H](O)[C@@H](O)[C@@H](O[C@H]8[C@H](O)[C@@H](O)[C@@H](O[C@H]9[C@H](O)[C@@H](O)[C@@H](O[C@H]1[C@H](O)[C@H]2O)O[C@@H]9CSCCO)O[C@@H]8CSCCO)O[C@@H]7CSCCO)O[C@@H]6CSCCO)O[C@@H]5CSCCO)O[C@@H]4CSCCO)O[C@@H]3CSCCO [example 13, 6-Per-deoxy-6-per(2-hydroxyethyl)thio-γ-cyclodextrin]
  concentration at maximum reversal (at conc.): (2.0) μmol · kg^−1
  % max reversal: 96%
  ED50: dose producing 50% reversal of steady-state neuromuscular block: 0.20 µmol/kg

## CNC(=O)CSCC1OC2OC3C(CSCC(=O)NC)OC(OC4C(CSCC(=O)NC)OC(OC5C(CSCC(=O)NC)OC(OC6C(CSCC(=O)NC)OC(OC7C(CSCC(=O)NC)OC(OC8C(CSCC(=O)NC)OC(OC9C(CSCC(=O)NC)OC(OC1C(O)C2O)C(O)C9O)C(O)C8O)C(O)C7O)C(O)C6O)C(O)C5O)C(O)C4O)C(O)C3O (stereo not drawn) [example 14, 6-Per-deoxy-6-per(N-methylamidomethyl)thio-γ-cyclodextrin]
  concentration at maximum reversal (at conc.): (7.3) μmol · kg^−1
  % max reversal: 102%
  ED50: dose producing 50% reversal of steady-state neuromuscular block: 1.54 µmol/kg

## CC(CSC[C@H]1O[C@@H]2O[C@H]3[C@H](O)[C@@H](O)[C@@H](O[C@H]4[C@H](O)[C@@H](O)[C@@H](O[C@H]5[C@H](O)[C@@H](O)[C@@H](O[C@H]6[C@H](O)[C@@H](O)[C@@H](O[C@H]7[C@H](O)[C@@H](O)[C@@H](O[C@H]8[C@H](O)[C@@H](O)[C@@H](O[C@H]9[C@H](O)[C@@H](O)[C@@H](O[C@H]1[C@H](O)[C@H]2O)O[C@@H]9CSCC(C)C(=O)[O-])O[C@@H]8CSCC(C)C(=O)[O-])O[C@@H]7CSCC(C)C(=O)[O-])O[C@@H]6CSCC(C)C(=O)[O-])O[C@@H]5CSCC(C)C(=O)[O-])O[C@@H]4CSCC(C)C(=O)[O-])O[C@@H]3CSCC(C)C(=O)[O-])C(=O)[O-].[Na+].[Na+].[Na+].[Na+].[Na+].[Na+].[Na+].[Na+] (stereo partly drawn) [example 15, 6-Per-deoxy-6-per(2-carboxypropyl)thio-γ-cyclodextrin, Sodium Salt]
  concentration at maximum reversal (at conc.): (0.48) μmol · kg^−1
  % max reversal: 103%
  ED50: dose producing 50% reversal of steady-state neuromuscular block: 0.10 µmol/kg

## O=C([O-])CCCSCC1OC2OC3C(CSCCCC(=O)[O-])OC(OC4C(CSCCCC(=O)[O-])OC(OC5C(CSCCCC(=O)[O-])OC(OC6C(CSCCCC(=O)[O-])OC(OC7C(CSCCCC(=O)[O-])OC(OC8C(CSCCCC(=O)[O-])OC(OC1C(O)C2O)C(O)C8O)C(O)C7O)C(O)C6O)C(O)C5O)C(O)C4O)C(O)C3O.[Na+].[Na+].[Na+].[Na+].[Na+].[Na+].[Na+] (stereo not drawn) [example 16, 6-Per-deoxy-6-per(3-carboxypropyl)thio-β-cyclodextrin, Sodium Salt]
  concentration at maximum reversal (at conc.): (3.2) μmol · kg^−1
  % max reversal: 100%
  ED50: dose producing 50% reversal of steady-state neuromuscular block: 0.5 µmol/kg

## O=S(=O)([O-])CCSCC1OC2OC3C(CSCCS(=O)(=O)[O-])OC(OC4C(CSCCS(=O)(=O)[O-])OC(OC5C(CSCCS(=O)(=O)[O-])OC(OC6C(CSCCS(=O)(=O)[O-])OC(OC7C(CSCCS(=O)(=O)[O-])OC(OC8C(CSCCS(=O)(=O)[O-])OC(OC9C(CSCCS(=O)(=O)[O-])OC(OC1C(O)C2O)C(O)C9O)C(O)C8O)C(O)C7O)C(O)C6O)C(O)C5O)C(O)C4O)C(O)C3O.[Na+].[Na+].[Na+].[Na+].[Na+].[Na+].[Na+].[Na+] (stereo not drawn) [example 17, 6-Per-deoxy-6-per(2-sulfoethyl)thio-γ-cyclodextrin, Sodium Salt]
  concentration at maximum reversal (at conc.): (1.7) μmol · kg^−1
  % max reversal: 106%
  ED50: dose producing 50% reversal of steady-state neuromuscular block: 0.055 µmol/kg
